Experimental data as given in patent US20070135490A1, “Phenetanolamine derivatives” (priority 2003, published 2007).

target: T1, human beta-2 receptor (Homo sapiens, UniProt P07550); test: Chinese hamster ovary cells co-expressing the human receptor with a reporter gene, cAMP measurement in whole cells or membranes (Method 2); format: cell-based; settings: CHO cells or membranes, read-out: pEC50 at the human beta-2 receptor (converted)
T1 construct: expressed in transfected cells; host or cells: Chinese hamster ovary cells (whole cells or membranes derived from them)
Description: Potency of compounds of the invention at the human beta 2, 1 and 3 receptors was also determined using Chinese hamster ovary cells co-expressing the human receptor with a reporter gene. Studies were performed using either whole cells or membranes derived from those cells.
The three beta-receptors are coupled via the Gs G-protein to cause a simulation of adenylate cyclase resulting in increased levels of cAMP in the cell. For direct cAMP measurements either membranes or cells have been used with either the HitHunter enzyme fragment complementation kit (DiscoveRx) or the FP^2 fluorescence polarisation kit (Perkin Elmer) to quantify the levels of cAMP present. These assays provide a measure of agonist potency and intrinsic activity of the compounds at the various receptors. […]
In this assay the potency of compounds at the human beta-2 receptor is expressed as a pEC50 value. Compounds of examples 12-26, 28-50 and 52-64 had pEC50 values greather than 6. […] No result is available for the compound of example 51.

T1 sequence (P07550 whole entry): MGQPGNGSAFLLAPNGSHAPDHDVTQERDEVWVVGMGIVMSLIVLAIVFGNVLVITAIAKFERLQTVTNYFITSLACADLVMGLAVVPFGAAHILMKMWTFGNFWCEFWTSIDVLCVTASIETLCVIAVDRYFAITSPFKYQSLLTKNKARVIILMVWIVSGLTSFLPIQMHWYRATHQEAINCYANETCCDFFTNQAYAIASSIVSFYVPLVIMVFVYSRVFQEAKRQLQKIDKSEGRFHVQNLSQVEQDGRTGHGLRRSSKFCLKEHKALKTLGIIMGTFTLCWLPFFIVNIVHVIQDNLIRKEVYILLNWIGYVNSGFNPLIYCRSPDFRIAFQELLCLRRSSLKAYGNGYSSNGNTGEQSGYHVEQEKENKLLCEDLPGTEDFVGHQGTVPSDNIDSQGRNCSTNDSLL

Compound	EC50 [µM]
OCc1cc([C@@H](O)CNCCc2cccc(COCCc3ccccc3F)c2)ccc1O [Example 41, Formic acid compound with 4-((1R)-2-{[2-(3-{[2-(2-fluorophenyl)ethoxy]methyl}phenyl)ethyl]amino}-1-hydroxyethyl)-2-(hydroxymethyl)phenol (1:1)]	< 1
C[C@@H](OCc1cccc(CCNC[C@H](O)c2ccc(O)c(CO)c2)c1)c1ccccc1 [Example 44, Formic acid compound with 2-(hydroxymethyl)-4-[(1R)-1-hydroxy-2-({2-[3-({[(1R)-1-phenylethyl]oxy}methyl)phenyl]ethyl}amino)ethyl]phenol (1:1)]	< 1
OCc1cc([C@@H](O)CNCCc2cccc(COCc3c(Cl)cccc3Cl)c2)ccc1O [Example 47, Formic acid compound with 4-((1R)-2-{[2-(3-{[(2,6-dichlorobenzyl)oxy]methyl}phenyl)ethyl]amino}-1-hydroxyethyl)-2-(hydroxymethyl)phenol (1:1)]	< 1
[O-][S+](c1cccc(CCCCOCc2cccc(CCNC[C@H](O)c3ccc(O)c(CO)c3)c2)c1)C1CCCC1 (stereo partly drawn) [Example 36, Formic acid compound with 4-[(1R)-2-({2-[3-({4-[3-(cyclopentylsulfinyl)phenyl]butoxy}methyl)phenyl]ethyl}amino)-1-hydroxyethyl]-2-(hydroxymethyl)phenol (1:1)]	< 1
OCc1cc([C@@H](O)CNCCc2cccc(COCCCc3c(Cl)cccc3Cl)c2)ccc1O [Example 63, Formic acid compound with 4-((1R)-2-{[2-(3-{[3-(2,6-dichlorophenyl)propoxy]methyl}phenyl)ethyl]amino}-1-hydroxyethyl)-2-(hydroxymethyl)phenol (1:1)]	< 1
OCc1cc([C@@H](O)CNCCc2cccc(COCc3ccc(F)cc3)c2)ccc1O [Example 50, Formic acid compound with 4-((1R)-2-{[2-(3-{[(4-fluorobenzyl)oxy]methyl}phenyl)ethyl]amino}-1-hydroxyethyl)-2-(hydroxymethyl)phenol (1:1)]	< 1
NS(=O)(=O)c1cccc(CCCCOCc2cccc(CCNC[C@H](O)c3ccc(O)c(CO)c3)c2)c1 [Example 12, Formic acid compound with 3-[4-({3-[2-({(2R)-2-Hydroxy-2-[4-hydroxy-3-(hydroxymethyl)phenyl]ethyl}amino)ethyl]benzyl}oxy)butyl]benzenesulfonamide (1:1)]	< 1
O=S(=O)(c1cccc(CCCOCc2cccc(CCNC[C@H](O)c3ccc(O)c(CO)c3)c2)c1)C1CCCC1 [Example 31, Formic acid compound with 4-[(1R)-2-({2-[3-({3-[3-(cyclopentylsulfonyl)phenyl]propoxy}methyl)phenyl]ethyl}amino)-1-hydroxyethyl]-2-(hydroxymethyl)phenol (1:1)]	< 1
OCc1cc([C@@H](O)CNCCc2cccc(COCc3cccc(F)c3)c2)ccc1O [Example 49, Formic acid compound with 4-((1R)-2-{[2-(3-{[(3-fluorobenzyl)oxy]methyl}phenyl)ethyl]amino}-1-hydroxyethyl)-2-(hydroxymethyl)phenol (1:1)]	< 1
CS(=O)(=O)c1ccc(CCCOCc2cccc(CCNC[C@H](O)c3ccc(O)c(CO)c3)c2)cc1 [Example 23, Formic acid compound with 2-(hydroxymethyl)-4-[(1R)-1-hydroxy-2-({2-[3-({3-[4-(methylsulfonyl)phenyl]propoxy}methyl)phenyl]ethyl}amino)ethyl]phenol (1:1)]	< 1
NC(=O)Nc1cccc(CCCCOCc2cccc(CCNC[C@H](O)c3ccc(O)c(CO)c3)c2)c1 [Example 58, Formic acid compound with N-{3-[4-({3-[2-({(2R)-2-hydroxy-2-[4-hydroxy-3-(hydroxymethyl)phenyl]ethyl}amino)ethyl]benzyl}oxy)butyl]phenyl}urea (1:1)]	< 1
N#Cc1cccc(CCCCOCc2cccc(CCNC[C@H](O)c3ccc(O)c(CO)c3)c2)c1 [Example 37, Formic acid compound with 3-[4-({3-[2-({(2R)-2-hydroxy-2-[4-hydroxy-3-(hydroxymethyl)phenyl]ethyl}amino)ethyl]benzyl}oxy)butyl]benzonitrile (1:1)]	< 1
O=S(=O)(c1cccc(CCCCOCc2cccc(CCNC[C@H](O)c3ccc(O)c(CO)c3)c2)c1)C1CCCC1 [Example 61, Formic acid compound with 4-[(1R)-2-({2-[3-({4-[3-(cyclopentylsulfonyl)phenyl]butoxy}methyl)phenyl]ethyl}amino)-1-hydroxyethyl]-2-(hydroxymethyl)phenol (1:1)]	< 1
N#Cc1ccc(COCc2cccc(CCNC[C@H](O)c3ccc(O)c(CO)c3)c2)cc1 [Example 43, Formic acid compound with 4-[({3-[2-({(2R)-2-hydroxy-2-[4-hydroxy-3-(hydroxymethyl)phenyl]ethyl}amino)ethyl]benzyl}oxy)methyl]benzonitrile (1:1)]	< 1
NS(=O)(=O)c1cccc(CCCOCc2cccc(CCNC[C@H](O)c3ccc(O)c(CO)c3)c2)c1 [Example 56, Formic acid compound with 3-[3-({3-[2-({(2R)-2-hydroxy-2-[4-hydroxy-3-(hydroxymethyl)phenyl]ethyl}amino)ethyl]benzyl}oxy)propyl]benzenesulfonamide (1:1)]	< 1
OCc1cc([C@@H](O)CNCCc2cccc(COCCCCc3cccc(O)c3)c2)ccc1O [Example 19, Formic acid compound with 4-((1R)-1-hydroxy-2-{[2-(3-{[4-(3-hydroxyphenyl)butoxy]methyl}phenyl)ethyl]amino}ethyl)-2-(hydroxymethyl)phenol (1:1)]	< 1
O=S(=O)(c1ccc(CCCOCc2cccc(CCNC[C@H](O)c3ccc(O)c(CO)c3)c2)cc1)C1CCCC1 [Example 30, Formic acid compound with 4-[(1R)-2-({2-[3-({3-[4-(cyclopentylsulfonyl)phenyl]propoxy}methyl)phenyl]ethyl}amino)-1-hydroxyethyl]-2-(hydroxymethyl)phenol (1:1)]	< 1
C[C@H](OCc1cccc(CCNC[C@H](O)c2ccc(O)c(CO)c2)c1)c1ccccc1 [Example 45, Formic acid compound with 2-(hydroxymethyl)-4-[(1R)-1-hydroxy-2-({2-[3-({[(1S)-1-phenylethyl]oxy}methyl)phenyl]ethyl}amino)ethyl]phenol (1:1)]	< 1
CC(OCCOCc1cccc(CCNC[C@H](O)c2ccc(O)c(CO)c2)c1)c1ccccc1 (stereo partly drawn) [Example 59, Formic acid compound with 2-(hydroxymethyl)-4-((1R)-1-hydroxy-2-{[2-(3-{[2-(1-phenylethoxy)ethoxy]methyl}phenyl)ethyl]amino}ethyl)phenol (1:1)]	< 1
OCc1cc([C@@H](O)CNCCc2cccc(COCCc3ccccc3O)c2)ccc1O [Example 25, Formic acid compound with 4-((1R)-1-hydroxy-2-{[2-(3-{[2-(2-hydroxyphenyl)ethoxy]methyl}phenyl)ethyl]amino}ethyl)-2-(hydroxymethyl)phenol (1:1)]	< 1
CS(=O)(=O)c1ccc(COCc2cccc(CCNC[C@H](O)c3ccc(O)c(CO)c3)c2)cc1 [Example 24, Formic acid compound with 2-(hydroxymethyl)-4-[(1R)-1-hydroxy-2-({2-[3-({[4-(methylsulfonyl)benzyl]oxy}methyl)phenyl]ethyl}amino)ethyl]phenol (1:1)]	< 1
OCc1cc([C@@H](O)CNCCc2cccc(COCCOCc3cccc(OC(F)(F)F)c3)c2)ccc1O [Example 18, Formic acid compound with 2-(hydroxymethyl)-4-{(1R)-1-hydroxy-2-[(2-{3-[(2-{[3-(trifluoromethoxy)benzyl]oxy}ethoxy)methyl]phenyl}ethyl)amino]ethyl}phenol (1:1)]	< 1
OCc1cc([C@@H](O)CNCCc2cccc(COCCOCc3cccc(O)c3)c2)ccc1O [Example 32, Formic acid compound with 4-[(1R)-1-hydroxy-2-({2-[3-({2-[(3-hydroxybenzyl)oxy]ethoxy}methyl)phenyl]ethyl}amino)ethyl]-2-(hydroxymethyl)phenol (1:1)]	< 1
OCc1cc([C@@H](O)CNCCc2cccc(COCc3ccccc3F)c2)ccc1O [Example 48, Formic acid compound with 4-((1R)-2-{[2-(3-{[(2-fluorobenzyl)oxy]methyl}phenyl)ethyl]amino}-1-hydroxyethyl)-2-(hydroxymethyl)phenol (1:1)]	< 1
OCc1cc([C@@H](O)CNCCc2cccc(COCCOc3ccccc3)c2)ccc1O [Example 38, Formic acid compound with 2-(hydroxymethyl)-4-{(1R)-1-hydroxy-2-[(2-{3-[(2-phenoxyethoxy)methyl]phenyl}ethyl)amino]ethyl}phenol (1:1)]	< 1
CS(=O)(=O)c1cccc(CCCCOCc2cccc(CCNC[C@H](O)c3ccc(O)c(CO)c3)c2)c1 [Example 62, Formic acid compound with 2-(hydroxymethyl)-4-[(1R)-1-hydroxy-2-({2-[3-({4-[3-(methylsulfonyl)phenyl]butoxy}methyl)phenyl]ethyl}amino)ethyl]phenol (1:1)]	< 1
OCc1cc([C@@H](O)CNCCc2cccc(COCCc3ccc(F)cc3)c2)ccc1O [Example 40, Formic acid compound with 4-((1R)-2-{[2-(3-{[2-(4-fluorophenyl)ethoxy]methyl}phenyl)ethyl]amino}-1-hydroxyethyl)-2-(hydroxymethyl)phenol (1:1)]	< 1
